Results reported in PubChem BioAssay AID1918999 (Molecular Pharmacology Branch, DTP, NCI, 2023).

System: 556581-035-R-J1-PDC complex spheroid growth
Assay: Anticancer human tumor 556581-035-R-J1-PDC patient-derived ovarian carcinoma cell line growth inhibition [AhR]
Settings: for IC50: curve of first compound; for viability, T/C: stronger effect = lower value
Summary of the method: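 Complex tumor spheroids co-cultured with HUVEC and human MSC stroma; AhR antagonists tested in combination with standard-of-care and investigational agents. Top concentration at or near clinical Cmax (else 10 microM), half-log dilutions; growth expressed as percent test/control.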
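Throughout, for viability, T/C: compound exposure lasted 7 days; 100% = DMSO vehicle control growth.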

Q: Which IC50 (second compound 0.1 µM) does the source give for `CCc1c2c(nc3ccc(O)cc13)-c1cc3c(c(=O)n1C2)COC(=O)[C@]3(O)CC` + Cc1cncc(-c2nc(NCCc3c[nH]c4ccccc34)c3ncn(C(C)C)c3n2)c1 here?
A: 14.8 nM

Q: And the IC50 (second compound 0.316 µM)?
A: 15.4 nM

Q: And the IC50 (second compound 1 µM)?
A: 13.7 nM

Q: And the IC50 (second compound 3.16 µM)?
A: 18.5 nM

Q: And the IC50 (second compound 10 µM)?
A: 16.8 nM

Q: And the viability, T/C (second compound 0.1 µM, first compound 0.000949 µM)?
A: 91.8%

Q: What about the viability, T/C (second compound 0.1 µM, first compound 0.003 µM) of the same compound?
A: 86.4%

Q: And the viability, T/C (second compound 0.1 µM, first compound 0.00949 µM)?
A: 56.4%

Q: And the viability, T/C (second compound 0.1 µM, first compound 0.03 µM)?
A: 36%

Q: What about the viability, T/C (second compound 0.1 µM, first compound 0.0949 µM) of the same compound?
A: 17.5%

Q: What about the viability, T/C (second compound 0.1 µM, first compound 0.3 µM) of the same compound?
A: 10.5%

Q: And the viability, T/C (second compound 0.316 µM, first compound 0.000949 µM)?
A: 97.3%

Q: And the viability, T/C (second compound 0.316 µM, first compound 0.003 µM)?
A: 89.2%

Q: What about the viability, T/C (second compound 0.316 µM, first compound 0.00949 µM) of the same compound?
A: 55.7%

Q: What about the viability, T/C (second compound 0.316 µM, first compound 0.03 µM) of the same compound?
A: 40%

Q: And the viability, T/C (second compound 0.316 µM, first compound 0.0949 µM)?
A: 14.4%

Q: What about the viability, T/C (second compound 0.316 µM, first compound 0.3 µM) of the same compound?
A: 10.8%

Q: And the viability, T/C (second compound 1 µM, first compound 0.000949 µM)?
A: 101%

Q: And the viability, T/C (second compound 1 µM, first compound 0.003 µM)?
A: 90.2%

Q: What about the viability, T/C (second compound 1 µM, first compound 0.00949 µM) of the same compound?
A: 60.6%

Q: What about the viability, T/C (second compound 1 µM, first compound 0.03 µM) of the same compound?
A: 27.1%

Q: And the viability, T/C (second compound 1 µM, first compound 0.0949 µM)?
A: 16.2%

Q: And the viability, T/C (second compound 1 µM, first compound 0.3 µM)?
A: 9.89%

Q: And the viability, T/C (second compound 3.16 µM, first compound 0.000949 µM)?
A: 84.2%

Q: What about the viability, T/C (second compound 3.16 µM, first compound 0.003 µM) of the same compound?
A: 90.8%

Q: What about the viability, T/C (second compound 3.16 µM, first compound 0.00949 µM) of the same compound?
A: 65.4%

Q: What about the viability, T/C (second compound 3.16 µM, first compound 0.03 µM) of the same compound?
A: 38.8%

Q: And the viability, T/C (second compound 3.16 µM, first compound 0.0949 µM)?
A: 14.6%

Q: And the viability, T/C (second compound 3.16 µM, first compound 0.3 µM)?
A: 13.8%

Q: And the viability, T/C (second compound 10 µM, first compound 0.000949 µM)?
A: 81.5%

Q: And the viability, T/C (second compound 10 µM, first compound 0.003 µM)?
A: 73.8%

Q: What about the viability, T/C (second compound 10 µM, first compound 0.00949 µM) of the same compound?
A: 63%

Q: What about the viability, T/C (second compound 10 µM, first compound 0.03 µM) of the same compound?
A: 37.7%

Q: What about the viability, T/C (second compound 10 µM, first compound 0.0949 µM) of the same compound?
A: 17.2%

Q: What about the viability, T/C (second compound 10 µM, first compound 0.3 µM) of the same compound?
A: 9.08%

Q: With `Nc1ccccc1NC(=O)c1ccc(CNC(=O)OCc2cccnc2)cc1` + Cc1cncc(-c2nc(NCCc3c[nH]c4ccccc34)c3ncn(C(C)C)c3n2)c1 as the compound, how does the IC50 (second compound 0.1 µM) read?
A: 2770 nM

Q: And the IC50 (second compound 0.316 µM)?
A: 2420 nM

Q: And the IC50 (second compound 1 µM)?
A: 2530 nM

Q: And the IC50 (second compound 3.16 µM)?
A: 1940 nM

Q: And the IC50 (second compound 10 µM)?
A: 791 nM

Q: And the viability, T/C (second compound 0.1 µM, first compound 0.0316 µM)?
A: 106%

Q: What about the viability, T/C (second compound 0.1 µM, first compound 0.1 µM) of the same compound?
A: 100%

Q: And the viability, T/C (second compound 0.1 µM, first compound 0.316 µM)?
A: 93.7%

Q: What about the viability, T/C (second compound 0.1 µM, first compound 1 µM) of the same compound?
A: 76.3%

Q: And the viability, T/C (second compound 0.1 µM, first compound 3.16 µM)?
A: 46.2%

Q: And the viability, T/C (second compound 0.1 µM, first compound 10 µM)?
A: 19.3%

Q: And the viability, T/C (second compound 0.316 µM, first compound 0.0316 µM)?
A: 107%

Q: And the viability, T/C (second compound 0.316 µM, first compound 0.1 µM)?
A: 121%

Q: What about the viability, T/C (second compound 0.316 µM, first compound 0.316 µM) of the same compound?
A: 102%

Q: And the viability, T/C (second compound 0.316 µM, first compound 1 µM)?
A: 78.5%

Q: And the viability, T/C (second compound 0.316 µM, first compound 3.16 µM)?
A: 42%

Q: What about the viability, T/C (second compound 0.316 µM, first compound 10 µM) of the same compound?
A: 19.7%

Q: What about the viability, T/C (second compound 1 µM, first compound 0.0316 µM) of the same compound?
A: 108%

Q: And the viability, T/C (second compound 1 µM, first compound 0.1 µM)?
A: 107%

Q: And the viability, T/C (second compound 1 µM, first compound 0.316 µM)?
A: 89.5%

Q: And the viability, T/C (second compound 1 µM, first compound 1 µM)?
A: 77%

Q: What about the viability, T/C (second compound 1 µM, first compound 3.16 µM) of the same compound?
A: 42.2%

Q: And the viability, T/C (second compound 1 µM, first compound 10 µM)?
A: 22.2%

Q: What about the viability, T/C (second compound 3.16 µM, first compound 0.0316 µM) of the same compound?
A: 93%

Q: And the viability, T/C (second compound 3.16 µM, first compound 0.1 µM)?
A: 99.2%

Q: And the viability, T/C (second compound 3.16 µM, first compound 0.316 µM)?
A: 98.7%

Q: And the viability, T/C (second compound 3.16 µM, first compound 1 µM)?
A: 67%

Q: What about the viability, T/C (second compound 3.16 µM, first compound 3.16 µM) of the same compound?
A: 37.6%

Q: And the viability, T/C (second compound 3.16 µM, first compound 10 µM)?
A: 18.1%

Q: What about the viability, T/C (second compound 10 µM, first compound 0.0316 µM) of the same compound?
A: 79%

Q: What about the viability, T/C (second compound 10 µM, first compound 0.1 µM) of the same compound?
A: 87%

Q: What about the viability, T/C (second compound 10 µM, first compound 0.316 µM) of the same compound?
A: 64.5%

Q: And the viability, T/C (second compound 10 µM, first compound 1 µM)?
A: 47.1%

Q: What about the viability, T/C (second compound 10 µM, first compound 3.16 µM) of the same compound?
A: 22.8%

Q: And the viability, T/C (second compound 10 µM, first compound 10 µM)?
A: 14.7%
